# Data: patent publication US11371097B2, “Articles for diagnosis of liver fibrosis” (THE GOVERNMENT OF THE UNITED STATES, as represented by THE …, priority 2015, dated 2022)
# Values joined by “and” are separate entries in the source; they are usually repeats but may differ in a detail not shown here. Equal values may be shown once. Read-outs that look alike come from different tables or passages of the source.
# Key:
# [1] = tested on: liver; type: in vivo, Male Sprague-Dawley rats;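 for Cytoplasmic Alteration: Severity grades from None 0% through Minimal Mild Moderate to Marked over 80% tissue affected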;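 for Inflammation: Severity grades from None 0% through Minimal Mild Moderate to Marked over 80% tissue affected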;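 for vacuolation: Severity grades from None 0% through Minimal Mild Moderate to Marked over 80% tissue affected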
# Procedure: All chemical compounds were diluted in corn oil (CAS No. 8001-30-7) (MP Biomedicals, LLC (Solon, Ohio)). The dose volume was 5 mL/kg. Doses were selected based on doses published in the DrugMatrix database, the National Toxicology Program reports, and ATSDR reports.
# (§1) In vivo rat experiments were performed at Integrated Laboratory Systems (ILS, Research Triangle Park, NC). ILS's Institutional Animal Care and Use Committee approved all experimental procedures. Research was conducted in compliance with the Animal Welfare Act, and other Federal statutes and regulations relating to animals and experiments involving animals and adheres to principles stated in the “Guide for Care and Use of Laboratory Animals” as prepared by the Committee on Care and Use of Laboratory Animals of the Institute of Laboratory Animal Resources, National Research Council in facilities that are fully accredited by the Association for Assessment and Accreditation of Laboratory Animal Care, International. Male Sprague-Dawley rats (CD IGS [CRL:CD (SD)]) were purchased from Charles River Laboratories (Stone Ridge, N.Y.). Rats weighing 215-245 g (8 weeks old) were used. Briefly, rats were housed two per cage with a rat tunnel enrichment device (Bio-Serve, Frenchtown, N.J.). Rats were fed a Purina Rodent Diet No. 5002 (Ralston Purina Co., St. Louis, Mo.), supplied ad libitum. Animals received reverse osmosis-treated tap water (City of Durham, N.C.) ad libitum, which was changed at least once weekly. Controls in the animal rooms were set to maintain temperatures between 20-In vivo rat experiments were performed at Integrated Laboratory Systems (ILS, Research Triangle Park, NC). ILS's Institutional Animal Care and Use Committee approved all experimental procedures. Research was conducted in compliance with the Animal Welfare Act, and other Federal statutes and regulations relating to animals and experiments involving animals and adheres to principles stated in the “Guide for Care and Use of Laboratory Animals” as prepared by the Committee on Care and Use of Laboratory Animals of the Institute of Laboratory Animal Resources, National Research Council in facilities that are fully accredited by the Association for Assessment and Accreditation of Laboratory Animal Care, International. Male Sprague-Dawley rats (CD IGS [CRL:CD (SD)]) were purchased from Charles River Laboratories (Stone Ridge, N.Y.). Rats weighing 215-245 g (8 weeks old) were used. Briefly, rats were housed two per cage with a rat tunnel enrichment device (Bio-Serve, Frenchtown, N.J.). Rats were fed a Purina Rodent Diet No. 5002 (Ralston Purina Co., St. Louis, Mo.), supplied ad libitum. Animals received reverse osmosis-treated tap water (City of Durham, N.C.) ad libitum, which was changed at least once weekly. Controls in the animal rooms were set to maintain temperatures between 20-25° C. with a relative humidity of 30-70% and a 12-hour light/12-hour dark cycle, lights on at 6:00 AM. Clinically healthy animals were assigned to dose groups using a procedure that stratifies animals across groups by body weight such that mean body weight of each group was not statistically different from any other group using analysis of variance (Statistical Analysis System version 9.2, SAS Institute, Cary, N.C.). Animals were dosed by oral gavage for five consecutive days (+10 minutes from the previous day's dose administration time). Volume was based upon daily body weight.
# Animals were observed cageside one hour following daily dose administration, then 1-2 times per day during dosing regimens. Body weights were measured daily prior to dose administration, and prior to euthanasia. Twenty-four hours after the final dose administration, animals were anesthetized with isoflurane then euthanized by exsanguination followed by decapitation. Livers were harvested at necropsy and weighed to within 0.1 g. One half of the left lobe of the liver was fixed in 10% formalin. […]
# [2] = type: in vivo, Male Sprague-Dawley rats
# Procedure: as §1
# Animals were observed cageside one hour following daily dose administration, then 1-2 times per day during dosing regimens. Body weights were measured daily prior to dose administration, and prior to euthanasia. Twenty-four hours after the final dose administration, animals were anesthetized with isoflurane then euthanized by exsanguination followed by decapitation. Livers were harvested at necropsy and weighed to within 0.1 g. One half of the left lobe of the liver was fixed in 10% formalin. The remaining half of the left lobe of the liver was flash frozen in liquid nitrogen, then stored below −70° C. Liver specimens were frozen in less than three minutes from time of death.
# [3] = tested on: 67 genes on the fibrosis gene panel; test: Multiplexed fibrosis gene panel (QuantiGene 2.0 Plex / Bioplex) on liver RNA
# Procedure: mRNA is isolated and purified from lysed tissue biopsy specimens. The target mRNA is incubated with beads conjugated to capture probes (each probe is an oligonucleotides specific for one of the genes in the panel). The target is hybridized to the probe by a capture extender-capture probe interaction. Specific mRNA targets hybridize overnight to the respective beads. The signal is amplified by incubating mRNA-capture probe pairs by affixing an amplifier affixed to a biotinylated label probe. Streptavidin-conjugated phycoerythrin (SAPE) is bound to the biotinylated probe to amplify the signal. The signal is detected and quantified by Bioplex suspension array instrumentation, which measures the SAPE fluorescence signal proportional to the amount of mRNA transcripts captured by the bead.
# Candidate genes identified by co-expression modules and pathway/network approaches were fabricated into a custom gene panel using a commercial source (the QuantiGene 2.0 Plex assay, Affymetrix, Santa Clara, Calif.). A total of 71 genes plus 3 housekeeping genes were selected. Using 150 ng RNA input, samples were processed following manufacturer's instructions for purified RNA with use of the HandHeld Magnetic Plate Washer. Plates were read immediately following the final wash using the BioPlex 200 instrument (BioRad, Hercules, Calif.). The following parameters were set on the BioPlex instrument: sample size=100 μL; DD Gate=5,000-25,000; Timeout=45 sec; Bead Event/Bead Region=100.
# For each sample, the average signal intensity was determined as recommended by the manufacturer. Duplicates were averaged. The average background signal for each gene was subtracted. Assay limit of detection was determined by adding three standard deviations of assay background signals to the average intensity of the background control wells. All intensities lower than the limit of detection for each probe was set to one unit above the probe's limit of detection. Probes with all intensities below the assay limit of detection were removed from the final analysis. The test gene signal was divided by the average intensities of the three normalization genes (Gapdh, Hprt1, Ppib). For each test gene, the fold change was calculated by dividing the normalized value for the treated samples by the normalized value of the vehicle-treated controls. Fold changes were plotted as log2 fold change. Gene expression data were imported into Partek Genomics Suite 6.0 (Partek, Inc., St. Louis, Mo.). Principal component analysis was used for multivariate interpretation to determine sources of variation across sample groups (Joliffe I T, Morgan B J. Principal component analysis and exploratory factor analysis. Statistical methods in medical research 1992; 1(1):69-95). Differentially expressed genes were determined by analysis of variance (ANOVA) with contrasts, setting the ANOVA factors as toxicant and the histopathological endpoint of fibrosis (any score >0). ANOVA variables were fibrosis score 0 (none) vs. score of >0 (minimal, mild, moderate, and marked). For hierarchical biclustering, differentially expressed genes were standardized by setting the genes expressed to a mean of zero and scaling to a standard deviation of one. Euclidean geometry was used to cluster row and column dissimilarity using a method of average linkage.
# Chemical-dose groups were down-selected based on histopathology to conform to the 96-well assay format of the multiplexed panel of presumptive fibrosis genes. Three of the four dose groups were evaluated for the fibrogenic chemicals allyl alcohol and 4,4′-methylenedianiline. A single dose was selected with group-matched vehicle controls for each of the remaining chemicals. […] The highest dose of bromobenzene was selected because the vacuolation pathology was only observed at this dose.
# Isolated liver RNA was incubated with microbead-bound capture probes specific for the 71 presumptive fibrogenic genes and three housekeeping normalization genes.
# [4] = histopathology score, individual animals, Carbon Tetrachloride 200, Bromobenzene 785, Dexamethasone 1 mg/kg
# [5] = liver RNA, individual animals, Carbon Tetrachloride 200, Bromobenzene 785, Dexamethasone 1 mg/kg
# [6] = liver, relative to the other pathologies
smiles,measurement,setting,value
Brc1ccccc1 [bromobenzene],Combined histopathological scores as percent of animals with pathology,"[1]; across dose groups, five days (figure legend)",dose-dependent increase in severe pathology
same,Histopathological evidence of bile duct hyperplasia or fibrosis,[1]; any dose,did not cause histopathological evidence of bile duct hyperplasia or fibrosis at any dose
same,Histopathological evidence of vacuolation and/or glycogen accumulation,[1]; exposures on the gene panel (FIG. 9 legend),correlated with histopathological evidence of vacuolation and/or glyocgen accumulation
same,Vacuolation,[1]; highest dose,varying degrees of vacuolation in all experimental animals
same,Bile Duct Hyperplasia and Fibroplasia,[1]; [4],0
same,Cytoplasmic Alteration,[1]; [4],1 (2×) and 2 and 3
same,Inflammation,[1]; [4],1 (3×) and 2
same,Vacuolation,[1]; [4],2 and 3 (2×) and 1
same,Body weight gain over the five experimental dosing days,[2]; dose groups,decrease in body weight gain
same,Body weight change over the five-day exposure interval,[2]; highest dose(s),resulted in body weight loss over the study interval
same,Pcolce expression levels compared with fibrogenic compounds,[3]; liver,"anti-correlated with corresponding gene expression levels induced by 4,4′-methylenedianiline and allyl alcohol"
same,Differential Expression of A2m,[3]; [5],−4.054 and −4.444 and −2.844 and −1.670
same,Differential Expression of Angptl3,[3]; [5],−0.864 and −1.104 and −0.499 and −0.518
same,Differential Expression of Anxa2,[3]; [5],1.771 and 1.226 and 1.391 and 0.783
same,Differential Expression of Apoc,[3]; [5],−0.325 and −0.372 and −0.172 and −0.338
same,Differential Expression of Arf6,[3]; [5],0.324 and 0.475 and 0.461 and 0.239
same,Differential Expression of Arpc1b,[3]; [5],−0.171 and −0.454 and −0.337 and −0.315
same,Differential Expression of Arrb1,[3]; [5],−1.220 and −1.482 and −0.627 and −2.254
same,Differential Expression of C1qb,[3]; [5],−0.465 and −0.014 and 0.309 and 0.018
same,Differential Expression of CD9,[3]; [5],−0.072 and −0.052 and 0.416 and 0.476
same,Differential Expression of CD53,[3]; [5],−0.045 and −0.339 and 0.303 and −0.440
same,Differential Expression of CP,[3]; [5],−1.055 and −0.969 and −0.530 and −1.250
same,Differential Expression of Capg,[3]; [5],−0.835 and −0.762 and 0.053 and −1.140
same,Differential Expression of Ccl2,[3]; [5],−0.790 and −1.244 and −1.328 and −1.622
same,Differential Expression of Col1a1,[3]; [5],−0.659 and −0.336 and 0.149 and −0.231
same,Differential Expression of Col1a2,[3]; [5],−0.901 and −0.686 and −0.378 and −0.731
same,Differential Expression of Col4a1,[3]; [5],−0.512 and −0.387 and −0.163 and −0.340
same,Differential Expression of Col5a2,[3]; [5],−0.708 and −0.778 and −0.542 and −0.877
same,Differential Expression of Ctgf,[3]; [5],−1.387 and −1.037 and −0.649 and −0.389
same,Differential Expression of Cxcl1,[3]; [5],−0.610 and −0.492 and −0.386 and −0.930
same,Differential Expression of Cxcl12,[3]; [5],−2.564 and −2.540 and −1.640 and −2.717
same,Differential Expression of Cxcl16,[3]; [5],−0.140 and −1.150 and −0.275 and −0.468
same,Differential Expression of Cyba,[3]; [5],−0.761 and −0.590 and 0.049 and −0.752
same,Differential Expression of Cyp2c11,[3]; [5],−7.760 and −8.696 and −7.411 and −6.882
same,Differential Expression of Dsc2,[3]; [5],0.800 and 0.827 and 0.610 and 0.624
same,Differential Expression of Fam102b,[3]; [5],−0.808 and −0.338 and −0.148 and −0.780
same,Differential Expression of Fam105a,[3]; [5],−0.461 and −0.047 and 0.188 and −0.207
same,Differential Expression of Fbn1,[3]; [5],−1.303 and −1.090 and −0.632 and −1.013
same,Differential Expression of Fn1,[3]; [5],−1.880 and −1.522 and −1.313 and −1.481
same,Differential Expression of Fstl1,[3]; [5],−1.078 and −0.899 and −0.423 and −1.140
same,Differential Expression of Fxyd5,[3]; [5],−0.189 and −0.159 and 0.283 and −0.184
same,Differential Expression of Gpnmb,[3]; [5],1.906 and 1.987 and 2.373 and 1.454
same,Differential Expression of Igfals,[3]; [5],−2.524 and −2.336 and −2.083 and −3.007
same,Differential Expression of Igfbp1,[3]; [5],3.275 and 3.897 and 0.758 and 3.616
same,Differential Expression of Igfbp2,[3]; [5],0.339 and 0.249 and −0.180 and 0.559
same,Differential Expression of Igfbp3,[3]; [5],−2.127 and −1.911 and −1.316 and −1.713
same,Differential Expression of Itga1,[3]; [5],−0.672 and −0.525 and 0.257 and −0.880
same,Differential Expression of Itgb2,[3]; [5],−0.722 and −0.914 and −0.301 and −1.032
same,Differential Expression of Lame2,[3]; [5],−0.725 and −1.692 and −0.854 and −1.188
same,Differential Expression of Lbp,[3]; [5],0.157 and 0.036 and 0.207 and −0.066
same,Differential Expression of Len2,[3]; [5],−0.682 and −0.719 and −0.661 and −1.007
same,Differential Expression of Lgals1,[3]; [5],−0.856 and −0.388 and −0.455 and −0.084
same,Differential Expression of Lgals3,[3]; [5],1.367 and 0.936 and 1.432 and 0.867
same,Differential Expression of Lgals3bp,[3]; [5],−0.415 and −0.105 and 0.126 and −0.427
same,Differential Expression of Lox,[3]; [5],−1.197 and −1.023 and −0.699 and −0.615
same,Differential Expression of Lrp1,[3]; [5],−1.297 and −1.003 and −0.323 and −1.011
same,Differential Expression of Lum,[3]; [5],−0.152 and −0.296 and −0.116 and −0.530
same,Differential Expression of Mmp2,[3]; [5],−0.086 and 0.177 and 0.235 and −0.151
same,Differential Expression of Nid1,[3]; [5],−0.460 and −0.132 and 0.014 and −0.579
same,Differential Expression of Pcolce,[3]; [5],−1.230 and −0.974 and −0.145 and −1.087
same,Differential Expression of Pkm2,[3]; [5],−0.142 and −0.085 and 0.069 and −0.110
same,Differential Expression of Plat,[3]; [5],0.202 and 0.005 and 0.027 and 0.084
same,Differential Expression of Plau,[3]; [5],−1.049 and −0.402 and −0.470 and −1.553
same,Differential Expression of Plod2,[3]; [5],−0.446 and −0.410 and −0.613 and −0.623
same,Differential Expression of RT1-DMa,[3]; [5],−0.569 and −0.589 and 0.149 and −0.606
same,Differential Expression of RT1-Da,[3]; [5],−0.205 and −0.563 and 0.533 and −0.554
same,Differential Expression of S100A6,[3]; [5],−0.521 and 0.005 and −0.682 and 0.207
same,Differential Expression of S100A11,[3]; [5],−0.356 and −0.292 and 0.061 and −0.441
same,Differential Expression of Serpine1,[3]; [5],0.153 and 0.825 and −0.550 and 0.552
same,Differential Expression of Serping1,[3]; [5],−1.107 and −0.925 and −0.627 and −0.678
same,Differential Expression of Slc25a24,[3]; [5],−0.143 and 0.149 and 0.189 and −0.325
same,Differential Expression of Sod2,[3]; [5],0.200 and −0.035 and 0.134 and 0.187
same,Differential Expression of TagIn2,[3]; [5],−0.669 and −0.625 and 0.147 and −0.816
same,Differential Expression of Tgfb1,[3]; [5],−0.596 and −0.528 and −0.330 and −0.639
same,Differential Expression of Timp1,[3]; [5],−0.428 and −0.191 and −0.231 and −0.056
same,Differential Expression of Vhl,[3]; [5],0.043 and −0.096 and −0.334 and −0.363
same,Differential Expression of Vim,[3]; [5],−0.148 and −0.045 and −0.109 and −0.327
same,Differential Expression of Vtn,[3]; [5],−1.353 and −1.261 and −0.746 and −0.854
same,Panel genes downregulated (and upregulated in fibrogenic chemical-dose groups),"[3]; liver, 67-gene panel, 1.5-fold threshold",12 genes
same,A2m expression,[3]; [6],downregulated
same,Lcn2 expression,[3]; [6],downregulated
same,Pcolce expression,[3]; [6],downregulated
